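All cell lines were grown in 96-well plates and treated with compound for 48 hours. Here, GI50 denotes the concentration required for 50% inhibition of growth.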 Activity calls are given as the source filed them. Cut-off read from the data, not from the text of the source: active = GI50 up to about 1.1 µM and inactive = higher.
How the values were obtained:
Test in all cases: NCI-60 cell line screen, 48 h
UACC-257 = system: UACC-257
UACC-62 = system: UACC-62
EKVX = system: EKVX
SF-295 = system: SF-295
NCI-H522 = system: NCI-H522
IGROV-1 = system: IGROV-1
HL-60 = system: HL-60
OVCAR-5 = system: OVCAR-5
COLO 205 = system: COLO 205
SNB-78 = system: SNB-78
A498 = system: A498
HCC 2998 = system: HCC 2998
UO-31 = system: UO-31
SNB-75 = system: SNB-75
SW-620 = system: SW-620
NCI-H23 = system: NCI-H23
HOP-92 = system: HOP-92
NCI-H460 = system: NCI-H460
NCI-H226 = system: NCI-H226
MCF7 = system: MCF7

O=C(NO)c1coc2ccccc2c1=O
GI50 (UACC-257): > 100 µM (inactive) | GI50 (UACC-62): > 100 µM (inactive) | GI50 (EKVX): > 100 µM (inactive) | GI50 (SF-295): > 100 µM (inactive) | GI50 (NCI-H522): > 100 µM (inactive) | GI50 (IGROV-1): > 100 µM (inactive) | GI50 (HL-60): 75.2 µM (inactive) | GI50 (OVCAR-5): > 100 µM (inactive) | GI50 (COLO 205): 39.4 µM (inactive) | GI50 (SNB-78): > 100 µM (inactive) | GI50 (A498): 43.2 µM (inactive) | GI50 (HCC 2998): 32.7 µM (inactive) | GI50 (UO-31): 86.9 µM (inactive) | GI50 (SNB-75): 41.9 µM (inactive) | GI50 (SW-620): > 100 µM (inactive) | GI50 (NCI-H23): > 100 µM (inactive)

COCCOCOc1ccc(OCc2ccccc2)cc1
GI50 (UACC-257): > 69.7 µM (inactive) | GI50 (UACC-62): > 100 µM (inactive) | GI50 (EKVX): > 55.7 µM (inactive) | GI50 (SF-295): > 100 µM (inactive) | GI50 (IGROV-1): > 100 µM (inactive) | GI50 (HOP-92): > 100 µM (inactive) | GI50 (HL-60): 22.5 µM (inactive) | GI50 (OVCAR-5): > 100 µM (inactive) | GI50 (COLO 205): > 100 µM (inactive) | GI50 (SNB-78): > 100 µM (inactive) | GI50 (NCI-H460): > 100 µM (inactive) | GI50 (A498): > 58.5 µM (inactive) | GI50 (NCI-H226): > 100 µM (inactive) | GI50 (MCF7): > 35.9 µM (inactive) | GI50 (HCC 2998): > 82.6 µM (inactive) | GI50 (UO-31): > 100 µM (inactive) | GI50 (SW-620): > 100 µM (inactive) | GI50 (NCI-H23): > 71 µM (inactive)

Cc1ccccc1-c1nc2c(C(=O)NCCN(C)C)cccc2[nH]1
GI50 (UACC-257): 39.8 µM (inactive) | GI50 (UACC-62): 40.3 µM (inactive) | GI50 (EKVX): > 100 µM (inactive) | GI50 (SF-295): 34.1 µM (inactive) | GI50 (NCI-H522): 59.3 µM (inactive) | GI50 (IGROV-1): 58.5 µM (inactive) | GI50 (HOP-92): 20.6 µM (inactive) | GI50 (HL-60): 26.5 µM (inactive) | GI50 (OVCAR-5): 40.2 µM (inactive) | GI50 (COLO 205): 18.5 µM (inactive) | GI50 (SNB-78): 51.5 µM (inactive) | GI50 (NCI-H460): 30.2 µM (inactive) | GI50 (A498): 42.3 µM (inactive) | GI50 (NCI-H226): 16 µM (inactive) | GI50 (MCF7): 41 µM (inactive) | GI50 (HCC 2998): 40.3 µM (inactive) | GI50 (UO-31): 20 µM (inactive) | GI50 (SNB-75): 39.3 µM (inactive) | GI50 (SW-620): 26.5 µM (inactive) | GI50 (NCI-H23): 57.7 µM (inactive)

NC(=O)Oc1ccccc1 [CARBAMIC ACID PHENYL ESTER]
GI50 (UACC-257): > 100 µM (inactive) | GI50 (SF-295): > 100 µM (inactive) | GI50 (NCI-H522): > 100 µM (inactive) | GI50 (HOP-92): > 100 µM (inactive) | GI50 (HL-60): > 100 µM (inactive) | GI50 (COLO 205): > 100 µM (inactive) | GI50 (NCI-H460): > 100 µM (inactive) | GI50 (A498): > 100 µM (inactive) | GI50 (NCI-H226): > 100 µM (inactive) | GI50 (MCF7): > 100 µM (inactive) | GI50 (HCC 2998): > 100 µM (inactive) | GI50 (UO-31): > 100 µM (inactive) | GI50 (SNB-75): > 100 µM (inactive) | GI50 (SW-620): > 100 µM (inactive) | GI50 (NCI-H23): > 100 µM (inactive)

CSc1nc(N)c2c(-c3ccccc3)c3c(nc2n1)CCCC3
GI50 (UACC-257): > 100 µM (inactive) | GI50 (UACC-62): > 100 µM (inactive) | GI50 (EKVX): > 100 µM (inactive) | GI50 (SF-295): > 100 µM (inactive) | GI50 (IGROV-1): > 100 µM (inactive) | GI50 (HL-60): > 100 µM (inactive) | GI50 (OVCAR-5): > 100 µM (inactive) | GI50 (COLO 205): > 100 µM (inactive) | GI50 (NCI-H460): > 100 µM (inactive) | GI50 (MCF7): > 100 µM (inactive) | GI50 (UO-31): 3.38 µM (inactive) | GI50 (SNB-75): 31.3 µM (inactive) | GI50 (SW-620): > 100 µM (inactive) | GI50 (NCI-H23): > 100 µM (inactive)

Cc1cc(NS(=O)(=O)c2ccc(NC(=O)c3cccc4c(Nc5ccc(S(N)(=O)=O)cc5)c5ccccc5nc34)cc2)no1
GI50 (UACC-257): > 100 µM (inactive) | GI50 (UACC-62): > 100 µM (inactive) | GI50 (EKVX): 96.8 µM (inactive) | GI50 (NCI-H522): 41.6 µM (inactive) | GI50 (HL-60): > 100 µM (inactive) | GI50 (OVCAR-5): > 100 µM (inactive) | GI50 (SNB-78): > 100 µM (inactive) | GI50 (NCI-H460): > 100 µM (inactive) | GI50 (A498): > 100 µM (inactive) | GI50 (HCC 2998): > 100 µM (inactive) | GI50 (UO-31): 35.6 µM (inactive) | GI50 (SNB-75): 60 µM (inactive) | GI50 (NCI-H23): > 100 µM (inactive)

CN(C)c1nc(N(C)C)nc(N(C)CN(C)c2ccccc2)n1
GI50 (UACC-257): > 100 µM (inactive) | GI50 (UACC-62): > 100 µM (inactive) | GI50 (SF-295): > 100 µM (inactive) | GI50 (NCI-H522): > 100 µM (inactive) | GI50 (IGROV-1): > 100 µM (inactive) | GI50 (HL-60): > 100 µM (inactive) | GI50 (SNB-78): > 100 µM (inactive) | GI50 (NCI-H460): > 100 µM (inactive) | GI50 (NCI-H226): > 100 µM (inactive) | GI50 (HCC 2998): 64.4 µM (inactive) | GI50 (UO-31): > 100 µM (inactive) | GI50 (SNB-75): > 100 µM (inactive) | GI50 (NCI-H23): > 100 µM (inactive)

O=C1OC(c2ccc(O)c(F)c2)(c2ccc(O)c(F)c2)c2cccc3cccc1c23
GI50 (UACC-257): > 25 µM (inactive) | GI50 (UACC-62): 17.5 µM (inactive) | GI50 (EKVX): 5.12 µM (inactive) | GI50 (SF-295): 23.2 µM (inactive) | GI50 (IGROV-1): > 25 µM (inactive) | GI50 (HOP-92): > 25 µM (inactive) | GI50 (HL-60): 5.57 µM (inactive) | GI50 (OVCAR-5): > 25 µM (inactive) | GI50 (COLO 205): 1.26 µM (inactive) | GI50 (NCI-H460): > 25 µM (inactive) | GI50 (A498): > 25 µM (inactive) | GI50 (NCI-H226): > 25 µM (inactive) | GI50 (MCF7): 1.79 µM (inactive) | GI50 (UO-31): > 25 µM (inactive) | GI50 (SW-620): > 25 µM (inactive) | GI50 (NCI-H23): > 25 µM (inactive)

CC(=C/c1ccccc1)/C=C1/NC(=S)N(/C=C2\C(=O)Oc3ccccc3C2=O)C1=O
GI50 (UACC-257): 66.7 µM (inactive) | GI50 (EKVX): 27.9 µM (inactive) | GI50 (SF-295): > 100 µM (inactive) | GI50 (NCI-H522): 22.7 µM (inactive) | GI50 (HOP-92): 7.78 µM (inactive) | GI50 (HL-60): 25.8 µM (inactive) | GI50 (OVCAR-5): > 100 µM (inactive) | GI50 (COLO 205): 36.7 µM (inactive) | GI50 (NCI-H460): 30.5 µM (inactive) | GI50 (A498): 56.4 µM (inactive) | GI50 (NCI-H226): 67.9 µM (inactive) | GI50 (MCF7): 39.7 µM (inactive) | GI50 (HCC 2998): 58.1 µM (inactive) | GI50 (SNB-75): > 100 µM (inactive) | GI50 (NCI-H23): 41.6 µM (inactive)

COc1cc2c(cc1Oc1ccc(OC)c3c1CC1c4c(cc(OC)c(OC)c4-3)CCN1C)CC1c3c(cc(OC)c(OC)c3-2)CCN1C (stereo not given)
GI50 (UACC-257): 1.65 µM (inactive) | GI50 (UACC-62): 1.97 µM (inactive) | GI50 (EKVX): 3.18 µM (inactive) | GI50 (SF-295): 2.54 µM (inactive) | GI50 (NCI-H522): 2.09 µM (inactive) | GI50 (IGROV-1): 3.86 µM (inactive) | GI50 (HOP-92): 2.34 µM (inactive) | GI50 (HL-60): 0.968 µM (active) | GI50 (OVCAR-5): 6.05 µM (inactive) | GI50 (COLO 205): 1.48 µM (inactive) | GI50 (SNB-78): 7.01 µM (inactive) | GI50 (NCI-H460): 1.7 µM (inactive) | GI50 (A498): 2.77 µM (inactive) | GI50 (NCI-H226): 1.53 µM (inactive) | GI50 (MCF7): 3.08 µM (inactive) | GI50 (HCC 2998): 2.41 µM (inactive) | GI50 (UO-31): 3.88 µM (inactive) | GI50 (SNB-75): 2.26 µM (inactive) | GI50 (SW-620): 1.95 µM (inactive) | GI50 (NCI-H23): 10.7 µM (inactive)

Reference: ChEMBL document CHEMBL1201862, “PubChem BioAssay data set” (2004)
